In general, IC50 refers to the midpoint of a concentration-inhibition curve. Broadly, the melting point is the temperature, or range, at which the solid turns liquid. As a reminder, the Ki is the dissociation constant of the complex between target and ligand, obtained from inhibition or displacement.

One data set addresses α-amylase. Nature of the data set: α-Amylase inhibition assay (α-Amylase Inhibitor Screening Kit). The note with it: mean ± SD of three independent experiments. The data set is classed as biochemical. The protocol:
The α-amylase assay was performed in triplicate using a 96-well plate following the procedure by the manufacturer as outlined in the α-Amylase Inhibitor Screening Kit (Catalog No. K482; Bio Vision). […] For inhibitor control (10 µL of α-amylase inhibitor and 40 µL of assay buffer were added to 3 wells), enzyme control (50 µL of assay buffer was added to three wells) and 50 µL of the test compounds were added into the remaining wells. A solution of α-amylase enzyme (50 µL) prepared by adding 490 µL of assay buffer to 10 µL of α-amylase enzyme was added to each of the wells containing the reaction mixture to initiate the reaction. The plate was incubated for 10 min at room temperature in the dark. Five different absorbance readings were recorded for each triplicate run at a wavelength of 405 nm using Varioskan flash microplate spectrophotometer (Thermo Scientific, Waltham, MA, USA). The IC50 and SD values were calculated using graph pad prism.

For another data set, the system named is Vero cells. In words: MTT cytotoxicity assay on Vero cells. The data set is classed as cell-based. The note with it: monkey, 24 h treatment. The method, then:
(§1) Metabolic diseases such as diabetes require a stable long-term therapy accompanied by well tolerated and low toxicity, and this encouraged us to evaluate the safety profile of 2a and 3e as potential antidiabetic agents at least in vitro. The compounds were evaluated for cytotoxicity against the normal monkey kidney cells (Vero cells) and the adenocarcinomic human epithelial (A549) cell line using the 3-(4,5-dimethylthiazol-2-yl)-2, 5-diphenyltetrazolium (MTT) assay.
The cytotoxicity activity of compounds 2a and 3e was evaluated against doxorubicin (positive control) using the 3-(4,5-dimethylthiazol-2-yl)-2,5-diphenyltetrazolium bromide (MTT) assay following a modification of a literature method by Mosmann. The Vero and A549 cells were maintained in Dulbecco′s modified Eagle′s medium (DMEM; Gibco) supplemented with 10% Fetal bovine serum (FBS) and 1% penicillin/streptomycin in culture flasks and incubated at 37 °C in 5% CO2. When the cells reached 85% confluency, they were detached using 2% trypsin. Cell count was performed using a handheld automated cell counter (Scapter 3.0™, Merck). The cells were seeded at 1 × 10^5 cells/well and incubated overnight to allow cell attachment. […] Five absorbance readings were recorded at 517 nm using Varioskan flash microplate spectrophotometer reader.
Background: Tetrazolium assays rely on reduction of a dye to a coloured formazan, in cell work by metabolically active cells.

The nature of data set [1]: NO free radical scavenging assay (sodium nitroprusside, Griess reaction). The note with it: mean ± SD of three independent experiments. An excerpt:
(§2) Reduced or lack of antioxidant activity of these compounds was attributed to the presence of intramolecular N-H···O hydrogen bond between amino and kenone group of the 2-aminochalcones and their sulfanamido derivatives which is envisaged to deactivate the unsaturated moiety. […] A combination of the styryl and the electrophilic α,β-unsaturated carbonyl arms on the same molecular framework encouraged us to evaluate the test compounds for antioxidant properties through the DPPH and NO radical scavenging assays. […] Compound 2a has potential to inhibit both α-glucosidase and α-amylase activities, and to reduce oxidative stress. […] The observed free radical scavenging activities of these molecular hybrids is presumably due to the presence of styryl arm on the intramolecularly hydrogen bonded 2-aminochalcone scaffold.
Nitric oxide was generated from sodium nitroprusside and measured by Griess’ reaction following the literature method. The experiment was done in triplicate with ascorbic acid (vitamin C) used as a positive control for the assay. In a 96 well plate, 5 μL of the test compounds (0.1, 0.5, 1.0, 5.0 and 10.0 μM in methanol) or the positive control were mixed with 5 μL of 10 mM sodium nitroprusside prepared in phosphate buffered saline (pH = 7.4) and allowed to incubate at room temperature for 2.5 h. Afterwards, 30 μL of the Griess reagent (a mixture of 0.2% N-(1-naphthyl)ethylenediamine dihydrochloride and 2% sulfanilamide in […]) was added to each well and the mixtures were and allowed to stand at room temperature for 30 min. Five absorbance readings were recorded at 546 nm using Varioskan flash microplate spectrophotometer reader.
(Griess reagent forms a coloured azo dye with nitrite.)

The target in data set [2] is yeast α-glucosidase from Saccharomyces cervisiae (Saccharomyces cerevisiae, UniProt P53341). Nature of the data set: biochemical. The note with it: mean ± SD of three independent experiments; pH 6.8, 37 °C; read-out: IC50 (SD) α-Glucosidase. The protocol: All the tests and analyses were performed in triplicates following a modified published protocol described in our previous study. […] 2.5, 5, 10, 25 and 50 µM. α-Glucosidase solution (0.48 u/mL, 20 µL), phosphate buffer (100 mM, pH 6.8; 30 µL) and the test sample (20 µL) as well as the reference standard were added in the designated wells, and the reaction mixtures were incubated at 37 °C for 10 min. 2 mM p-nitrophenyl-α-D-glucopyranoside (20 µL) was added to each of the wells containing reaction mixture to initiate the reaction. The reaction was pre-incubated for 30 min at 37 °C. The reaction was stopped by the addition of 20 μL of a solution of sodium carbonate (200 mM) to each well. Five absorbance readings were recorded for each triplicate run at a wavelength of 400 nm using Varioskan flash microplate spectrophotometer (Thermo Scientific, Waltham, MA, USA). The average values obtained from the readings were used to determine the IC50 and standard deviation values. The values were calculated by the nonlinear regression analysis and expressed as the mean SD of three distinct experiments using Graph Pad Prism software.

For the next data set, the target named is α-glucosidase (Saccharomyces cerevisiae, UniProt P53341). Nature of the data set: Enzyme kinetic studies (Lineweaver-Burk and Dixon plots). The data set is classed as biochemical. The protocol:
The Lineweaver-Burk plot of 1/V versus 1/[S] in the presence of different concentrations of compound 2a in the case of α-glucosidase gave a series of straight lines that intersect on the x-axis (Figure 3a). […] The compound probably binds to the active site and other allosteric sites on the enzyme.
Enzyme kinetics studies were performed on compounds 2a and 3e with increasing inhibitor and substrate concentrations. In the experimental procedure, inhibitors concentrations of 0.1, 0.5, 1, 2.5 µM, and final substrate concentration were 0.1, 0.5, 1 and 5 mM were used. 5 μL of the inhibitor and 2 μL of the enzyme (α-glucosidase) were added to each well of the 96-well plate. The reaction was incubated for 20 min at room temperature. 18 μL of the substrate, PNPG (4-nitrophenyl α-D-glucopyranoside) was then added and absorbance readings recorded after every 2 min at wavelength of 400 nm using a Varioskan flash microplate spectrophotometer reader. Lineweaver-Burk plot (the inverse of velocity (1/v) against the inverse of the substrate concentration (1/[S]) were used to determining the type of inhibition, while the inhibitor constant was obtained from the Dixon plot (the inverse of velocity (1/v) against concentration of inhibitor at each substrate concentration)

A short description of data set [3]: DPPH radical scavenging assay. The note with it: free radical scavenging; mean ± SD of three independent experiments.
From the text: as §2
The antioxidant activities of the test compounds against ascorbic acid (Sigma Aldrich, Saint Louis, Missouri, USA) as a positive control were evaluated using 2,2-diphenyl-1-picrylhydrazyl (DPPH) radical scavenging assay developed by Zhu et al. as described in our previous study. Triplicate solutions (20 µL) of the test compounds and ascorbic acid in DMSO (final concentrations: 5, 10, 25, 50, and 100 µM) were added into each designated well of a 96-well plate. A solution of 0.20 mM DPPH (20 µL) in methanol was added to each well, and the 96-well plate was wrapped with aluminum foil and incubated in the dark for 45 min. Five absorbance readings were recorded at 512 nm using Varioskan flash microplate spectrophotometer reader. The average values obtained from the absorbance readings were used to determine the IC50 and standard deviation values.

The test system of the next data set is A549 cells. Nature of the data set: MTT cytotoxicity assay on A549 cells. The data set is classed as cell-based, human. The note with it: human, A549 cells, 24 h treatment. The protocol:
as §1
The cytotoxicity activity of compounds 2a and 3e was evaluated against doxorubicin (positive control) using the 3-(4,5-dimethylthiazol-2-yl)-2,5-diphenyltetrazolium bromide (MTT) assay following a modification of a literature method by Mosmann. The Vero and A549 cells were maintained in Dulbecco′s modified Eagle′s medium (DMEM; Gibco) supplemented with 10% Fetal bovine serum (FBS) and 1% penicillin/streptomycin in culture flasks and incubated at 37 °C in 5% CO2. When the cells reached 85% confluency, they were detached using 2% trypsin. Cell count was performed using a handheld automated cell counter (Scapter 3.0™, Merck). The cells were seeded at 1 × 10^5 cells/well and incubated overnight to allow cell attachment. After 24 h, the cells were treated with different concentrations (0, 2.5, 5, 10, 25, 50, 100 µM) of the test compounds and the reference stand. The cells were incubated for 24 h followed by treatment with 20 µL of MTT solution (5 mg/mL). After 4 h incubation period, DMSO (100 µL) was added to each well to dissolve the formazan crystals. Five absorbance readings were recorded at 517 nm using Varioskan flash microplate spectrophotometer reader.

Chain of α-glucosidase (P53341 whole entry): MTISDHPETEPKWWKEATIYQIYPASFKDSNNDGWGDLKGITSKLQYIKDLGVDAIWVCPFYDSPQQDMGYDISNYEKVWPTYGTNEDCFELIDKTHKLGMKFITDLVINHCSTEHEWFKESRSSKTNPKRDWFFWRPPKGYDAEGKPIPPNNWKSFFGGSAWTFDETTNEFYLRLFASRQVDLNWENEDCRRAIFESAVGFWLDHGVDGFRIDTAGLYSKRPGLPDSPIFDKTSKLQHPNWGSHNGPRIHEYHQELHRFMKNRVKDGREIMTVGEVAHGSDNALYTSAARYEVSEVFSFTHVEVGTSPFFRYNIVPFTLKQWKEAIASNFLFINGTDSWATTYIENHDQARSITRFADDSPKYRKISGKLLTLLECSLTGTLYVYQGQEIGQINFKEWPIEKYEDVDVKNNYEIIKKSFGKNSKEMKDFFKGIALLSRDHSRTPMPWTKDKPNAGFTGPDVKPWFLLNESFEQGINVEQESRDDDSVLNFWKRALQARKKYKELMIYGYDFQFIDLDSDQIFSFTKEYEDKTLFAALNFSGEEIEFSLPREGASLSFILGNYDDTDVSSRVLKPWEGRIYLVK
Chain of yeast α-glucosidase from Saccharomyces cervisiae (P53341 whole entry): as above

Regarding `Nc1ccc(/C=C/c2ccccc2)cc1C(=O)/C=C/c1ccc(F)cc1` [Compound 3e, (E)-1-(2-Amino-5-((E)-styryl)phenyl)-3-(4-fluorophenyl)prop-2-en-1-one], the melting point was in the range of 161 to 162 °C. This molecule registered a concentration for half-maximal inhibition (IC50) at α-amylase of 1.6 ± 0.52 µM. In addition, it took 220 ± 0.57 µM to reach half-maximal inhibition in the data set with Vero cells (IC50 at 24 h). Further, the half-maximal inhibitory concentration (IC50) in data set [1] was determined as 20.5 ± 0.46 µM. For the same molecule, the IC50 in data set [2] came out at 5.1 ± 0.61 µM. Also, the “velocity of the reaction (Vmax)” value on α-glucosidase (α-glucosidase in the presence of increasing inhibitor concentrations, Lineweaver-Burk plot) is 0.01 ± 0.002 µM/min. In addition, on α-glucosidase (α-glucosidase, PNPG substrate, read-out: Ki (Dixon plot)), the Ki turned out to be 1.48 ± 0.05 µM. Further, at α-glucosidase (α-glucosidase, Lineweaver-Burk and Dixon plots), the mode of inhibition entry was “mixed mode of inhibition”. Besides, the 50% inhibitory concentration (IC50) in data set [3] was 4.2 ± 0.43 µM. In the data set with A549 cells, this molecule yielded an IC50 at 24 h of 204 ± 0.55 µM.

These data come from PMC8125089, “Synthesis, Structure, Carbohydrate Enzyme Inhibition, Antioxidant Activity, In Silico Drug-Receptor Interactions and Drug-Like Profiling of the 5-Styryl-2-Aminochalcone Hybrids” (Molecules, 2021).
